Laboratory results from US10104889B2 (priority 2011, dated 2018).

Tested on: Candidatus ‘Liberibacter asiaticus’
Assay type: in vivo
Details: 1 μM, all tested variants, monthly until sixth month, FIG. 6

C[C@@H]1CC[C@@]2(OC1)O[C@H]1C[C@H]3[C@@H]4CC[C@H]5CC(O)CC[C@]5(C)[C@H]4OC(=O)C[C@]3(C)[C@H]1[C@@H]2C (stereo partly drawn) [brassinosteroid analogue, (25R)-3-hydroxy-C-homo-11-oxa-5-espirostan-12-one]
bacterial reduction at application frequencies 1, 2 and 4 times per month: bacterial reduction was observed
